Source: ChEMBL document CHEMBL4680368, “Myeloid Cell Leukemia-1 Inhibitors as Emerging Cancer Treatment” (ACS Med Chem Lett, 2021)

target: Induced myeloid leukemia cell differentiation protein Mcl-1 (Homo sapiens, UniProt Q07820); assay: Inhibition of Terbium-labeled BIM BH3 peptide binding to MCL1 (unknown origin) incubated for 60 mins by HTRF assay; settings: not given
Sequence (Q07820 whole entry): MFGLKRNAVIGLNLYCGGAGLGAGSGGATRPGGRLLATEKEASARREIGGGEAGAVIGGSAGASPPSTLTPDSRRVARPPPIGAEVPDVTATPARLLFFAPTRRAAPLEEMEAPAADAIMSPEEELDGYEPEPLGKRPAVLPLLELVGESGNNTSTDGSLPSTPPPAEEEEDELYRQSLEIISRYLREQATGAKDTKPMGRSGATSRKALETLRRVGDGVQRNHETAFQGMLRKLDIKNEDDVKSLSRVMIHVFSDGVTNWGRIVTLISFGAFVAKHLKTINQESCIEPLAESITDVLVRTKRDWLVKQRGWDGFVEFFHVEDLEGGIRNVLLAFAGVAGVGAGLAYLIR

Q: With `C[C@@H]1[C@@H](C)C/C=C(\F)CN2CC[C@H]2CN2C[C@@]3(CCCc4cc(Cl)ccc43)COc3ccc(cc32)C(=O)NS1(=O)=O` as the molecule, how does the Ki read?
A: Its Ki is 0.84 nM.

Q: For `COCCOCC1(COCCOC)/C(F)=C/C[C@H](C)[C@@H](C)S(=O)(=O)NC(=O)c2ccc3c(c2)N(C[C@@H]2CCN21)C[C@@]1(CCCc2cc(Cl)ccc21)CO3`, which Ki is on record?
A: The Ki was 0.25 nM.

tested on: not listed separately; assay: Induction of apoptosis in human MOLP8 cells assessed as increase in caspase 3/7 activation incubated for 2 hrs by luminometric caspase-glo 3/7 assay; assay type: functional, cell-based; settings: MOLP-8, 2 h

Q: With `C[C@@H]1[C@@H](C)C/C=C(\F)[C@H](CO)N2CC[C@H]2CN2C[C@@]3(CCCc4cc(Cl)ccc43)COc3ccc(cc32)C(=O)NS1(=O)=O` as the molecule, how does the AC50 read?
A: The AC50 was 144 nM.

Q: Which AC50 does the source give for `C[C@@H]1[C@@H](C)C/C=C(\F)[C@H](COc2ccccn2)N2CC[C@H]2CN2C[C@@]3(CCCc4cc(Cl)ccc43)COc3ccc(cc32)C(=O)NS1(=O)=O` here?
A: Its AC50 is 1490 nM.

Q: For `C[C@@H]1[C@@H](C)C/C=C(\F)CN2CC[C@H]2CN2C[C@@]3(CCCc4cc(Cl)ccc43)COc3ccc(cc32)C(=O)NS1(=O)=O`, which AC50 is on record?
A: The AC50 was 692 nM.

Q: With `COC[C@H]1/C(F)=C/C[C@H](C)[C@@H](C)S(=O)(=O)NC(=O)c2ccc3c(c2)N(C[C@@H]2CCN21)C[C@@]1(CCCc2cc(Cl)ccc21)CO3` as the molecule, how does the AC50 read?
A: Its AC50 is 181 nM.

Q: With `C[C@@H]1[C@@H](C)C/C=C(\F)[C@H](CN2CCN3CCOC[C@@H]3C2)N2CC[C@H]2CN2C[C@@]3(CCCc4cc(Cl)ccc43)COc3ccc(cc32)C(=O)NS1(=O)=O` as the molecule, how does the AC50 read?
A: The AC50 was 120 nM.

Q: For `C[C@@H]1[C@@H](C)C/C=C(\F)[C@H](COCC(=O)O)N2CC[C@H]2CN2C[C@@]3(CCCc4cc(Cl)ccc43)COc3ccc(cc32)C(=O)NS1(=O)=O`, which AC50 is on record?
A: The AC50 was 5990 nM.

Q: For `COCCOCC1(COCCOC)/C(F)=C/C[C@H](C)[C@@H](C)S(=O)(=O)NC(=O)c2ccc3c(c2)N(C[C@@H]2CCN21)C[C@@]1(CCCc2cc(Cl)ccc21)CO3`, which AC50 is on record?
A: The AC50 was 152 nM.

Q: For `C[C@@H]1[C@@H](C)C/C=C(\F)[C@H](COCCCN2CCOCC2)N2CC[C@H]2CN2C[C@@]3(CCCc4cc(Cl)ccc43)COc3ccc(cc32)C(=O)NS1(=O)=O`, which AC50 is on record?
A: The AC50 was 231 nM.

Q: For `C[C@@H]1[C@@H](C)C/C=C(\F)C(CO)(CO)N2CC[C@H]2CN2C[C@@]3(CCCc4cc(Cl)ccc43)COc3ccc(cc32)C(=O)NS1(=O)=O`, which AC50 is on record?
A: The AC50 was 2390 nM.

Q: For `COCCCOC[C@H]1/C(F)=C/C[C@H](C)[C@@H](C)S(=O)(=O)NC(=O)c2ccc3c(c2)N(C[C@@H]2CCN21)C[C@@]1(CCCc2cc(Cl)ccc21)CO3`, which AC50 is on record?
A: The AC50 was 274 nM.
